The conditions of the data set: amide bond, 16-membered ring, HBTU/HOBt/DIPEA, DMF, 25.0 °C.

The values that follow come from publication PMC10108353, “Design and Pharmacological Characterization of α4β1 Integrin Cyclopeptide Agonists: Computational Investigation of Ligand Determinants for Agonism versus Antagonism” (Journal of Medicinal Chemistry, 2023).

Each structure is given as a SMILES string. Read-outs that look alike come from different tables or passages of the source.

In turn, `Cc1ccccc1NC(=O)Nc1ccc(C[C@@H]2NC(=O)C[C@@H](C(=O)OCc3ccccc3)NC(=O)[C@H](C(C)C)NC(=O)[C@H](CC(=O)OCc3ccccc3)NC(=O)[C@H](CC(C)C)NC2=O)cc1` [H-Asp(OBn)-Val-isoAsp(OBn)-Phu-Leu-OH?] had a ring closure, yield after HPLC (from H-Asp(OBn)-Val-isoAsp(OBn)-Phu-Leu-OH?) of 0%.
In turn, `Cc1ccccc1NC(=O)Nc1ccc(C[C@@H]2NC(=O)C[C@@H](C(=O)OCc3ccccc3)NC(=O)[C@H](C(C)C)NC(=O)[C@H](C)NC(=O)[C@H](CC(C)C)NC2=O)cc1` [H-Phu-Leu-Ala-Val-isoAsp(OBn)-OH] gave a ring closure, yield after HPLC (from H-Phu-Leu-Ala-Val-isoAsp(OBn)-OH) of 37%.
The compound `Cc1ccccc1NC(=O)Nc1ccc(C[C@@H]2NC(=O)C[C@@H](C)NC(=O)[C@H](C(C)C)NC(=O)[C@H](CC(=O)OCc3ccccc3)NC(=O)[C@H](CC(C)C)NC2=O)cc1` [H-Phu-Leu-Asp(OBn)-Val-(R)-β3homoAla-OH] returned a ring closure, yield after HPLC (from H-Phu-Leu-Asp(OBn)-Val-(R)-β3homoAla-OH) of 50%.
Under “from H-Phu-Leu-Asp(OBn)-Val-disoAsp(OBn)-OH”, `Cc1ccccc1NC(=O)Nc1ccc(C[C@@H]2NC(=O)C[C@H](C(=O)OCc3ccccc3)NC(=O)[C@H](C(C)C)NC(=O)[C@H](CC(=O)OCc3ccccc3)NC(=O)[C@H](CC(C)C)NC2=O)cc1` [H-Phu-Leu-Asp(OBn)-Val-disoAsp(OBn)-OH] registered a ring closure, yield after HPLC of 19%.
Regarding `CCCNC(=O)[C@@H]1CC(=O)N[C@@H](Cc2ccc(NC(=O)Nc3ccccc3C)cc2)C(=O)N[C@@H](CC(C)C)C(=O)N[C@@H](CC(=O)OCc2ccccc2)C(=O)N[C@@H](C(C)C)C(=O)N1` [H-Phu-Leu-Asp(OBn)-Val-isoAsp(NHPr)-OH?], the ring closure, yield after HPLC (from H-Phu-Leu-Asp(OBn)-Val-isoAsp(NHPr)-OH?) is 27%.
Regarding `Cc1ccccc1NC(=O)Nc1ccc(C[C@@H]2NC(=O)C[C@@H](C(=O)OCc3ccccc3)NC(=O)[C@H](C(C)C)NC(=O)[C@H](CC(=O)OCc3ccccc3)NC(=O)[C@H](CC(C)C)NC2=O)cc1` [H-Phu-Leu-Asp(OBn)-Val-isoAsp(OBn)-OH], the ring closure, yield after HPLC (from H-Phu-Leu-Asp(OBn)-Val-isoAsp(OBn)-OH) stood at 28%.
`Cc1ccccc1NC(=O)Nc1ccc(C[C@@H]2NC(=O)C[C@@H](C(=O)OCc3ccccc3)NC(=O)[C@H](C(C)C)NC(=O)[C@H](C)NC(=O)[C@H](Cc3ccccc3)NC2=O)cc1` [H-Phu-Phe-Ala-Val-isoAsp(OBn)-OH] yielded a ring closure, yield after HPLC (from H-Phu-Phe-Ala-Val-isoAsp(OBn)-OH) of 48%.
Regarding `Cc1ccccc1NC(=O)Nc1ccc(C[C@@H]2NC(=O)C[C@@H](C(=O)OCc3ccccc3)NC(=O)[C@H](C(C)C)NC(=O)[C@H](CC(=O)OCc3ccccc3)NC(=O)[C@H](Cc3ccccc3)NC2=O)cc1` [H-Phu-Phe-Asp(OBn)-Val-isoAsp(OBn)-OH], the ring closure, yield after HPLC (from H-Phu-Phe-Asp(OBn)-Val-isoAsp(OBn)-OH) came to 25%.
In the case of `Cc1ccccc1NC(=O)Nc1ccc(C[C@H]2NC(=O)C[C@@H](C(=O)OCc3ccccc3)NC(=O)[C@H](C(C)C)NC(=O)[C@H](C)NC(=O)[C@H](CC(C)C)NC2=O)cc1` [H-dPhu-Leu-Ala-Val-isoAsp(OBn)-OH], the ring closure, yield after HPLC (from H-dPhu-Leu-Ala-Val-isoAsp(OBn)-OH) amounted to 15%.
`Cc1ccccc1NC(=O)Nc1ccc(C[C@H]2NC(=O)C[C@@H](C(=O)OCc3ccccc3)NC(=O)[C@H](c3ccccc3)NC(=O)[C@H](CC(=O)OCc3ccccc3)NC(=O)[C@H](CC(C)C)NC2=O)cc1` [H-dPhu-Leu-Asp(OBn)-Phg-isoAsp(OBn)-OH?] registered a ring closure, yield after HPLC (from H-dPhu-Leu-Asp(OBn)-Phg-isoAsp(OBn)-OH?) of 43%.
Under “from H-dPhu-Leu-Asp(OBn)-Val-(R)-β3homoAla-OH”, `Cc1ccccc1NC(=O)Nc1ccc(C[C@H]2NC(=O)C[C@@H](C)NC(=O)[C@H](C(C)C)NC(=O)[C@H](CC(=O)OCc3ccccc3)NC(=O)[C@H](CC(C)C)NC2=O)cc1` [H-dPhu-Leu-Asp(OBn)-Val-(R)-β3homoAla-OH] had a ring closure, yield after HPLC of 33%.
On to `Cc1ccccc1NC(=O)Nc1ccc(C[C@H]2NC(=O)C[C@H](C(=O)OCc3ccccc3)NC(=O)[C@H](C(C)C)NC(=O)[C@H](CC(=O)OCc3ccccc3)NC(=O)[C@H](CC(C)C)NC2=O)cc1` [H-dPhu-Leu-Asp(OBn)-Val-disoAsp(OBn)-OH], for which the ring closure, yield after HPLC (from H-dPhu-Leu-Asp(OBn)-Val-disoAsp(OBn)-OH) amounted to 34%.
For the compound `Cc1ccccc1NC(=O)Nc1ccc(C[C@H]2NC(=O)C[C@@H](C(=O)OCc3ccccc3)NC(=O)[C@H](C(C)C)NC(=O)[C@H](CC(=O)OCc3ccccc3)NC(=O)[C@H](CC(C)C)NC2=O)cc1` [H-dPhu-Leu-Asp(OBn)-Val-isoAsp(OBn)-OH], the ring closure, yield after HPLC (from H-dPhu-Leu-Asp(OBn)-Val-isoAsp(OBn)-OH) stood at 29%.
